Source: patent publication US9193744B2, “Heterocyclic nuclear hormone receptor modulators” (AbbVie Inc., priority 2012, dated 2015)
Where two headings read alike, the source gives them in different places.

How the values were obtained:
[1] = test system: IL-6; experiment: A549 Cell Assay to Measure Inflammation Markers (inhibition of IL-1β-induced IL-6); format: cell-based; details: A549 cells, read-out: A549 cell assay
Method in brief: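 A549 cells pre-incubated 1 h with compound (10-point dilution, 0.1% DMSO final) in charcoal-stripped serum medium, then stimulated 4 h with 1 ng/mL IL-1β at 37° C. Supernatant IL-6 measured by MSD immunoassay; IC50 and Emax relative to 1 μM prednisolone as 100% inhibition; viability checked by CellTiter-Glo.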

[2] = molecular target: T1, Glucocorticoid Receptor (GR) (Homo sapiens, UniProt P04150); experiment: GR Fluorescence Polarization Assay (PolarScreen Glucocorticoid Receptor Competitor Assay, Red); details: fluorescence polarization binding ranges
T1 construct: purchased Invitrogen P2893
T1 sequence (P04150 1-777): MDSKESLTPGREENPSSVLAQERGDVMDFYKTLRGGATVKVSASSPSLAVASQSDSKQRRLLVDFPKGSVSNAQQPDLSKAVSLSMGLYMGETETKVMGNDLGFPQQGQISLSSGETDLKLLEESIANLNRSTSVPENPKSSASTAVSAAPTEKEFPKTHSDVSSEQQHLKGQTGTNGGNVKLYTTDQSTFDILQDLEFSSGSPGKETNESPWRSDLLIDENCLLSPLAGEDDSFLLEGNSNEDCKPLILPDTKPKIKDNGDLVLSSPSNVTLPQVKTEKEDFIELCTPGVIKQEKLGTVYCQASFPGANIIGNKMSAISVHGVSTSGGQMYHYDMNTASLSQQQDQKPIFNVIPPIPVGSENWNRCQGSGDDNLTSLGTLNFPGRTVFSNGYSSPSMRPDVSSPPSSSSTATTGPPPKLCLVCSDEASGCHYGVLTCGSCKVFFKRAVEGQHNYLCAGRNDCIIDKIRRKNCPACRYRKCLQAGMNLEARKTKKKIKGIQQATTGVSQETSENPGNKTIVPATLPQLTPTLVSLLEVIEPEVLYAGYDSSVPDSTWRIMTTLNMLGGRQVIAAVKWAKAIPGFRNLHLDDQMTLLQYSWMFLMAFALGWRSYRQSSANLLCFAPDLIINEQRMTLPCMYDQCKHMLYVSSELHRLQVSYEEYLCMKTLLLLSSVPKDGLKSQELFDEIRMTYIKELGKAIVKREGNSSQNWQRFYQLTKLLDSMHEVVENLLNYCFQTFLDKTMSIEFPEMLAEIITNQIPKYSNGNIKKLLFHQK
Method in brief: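 Compound displacement of a red-labelled glucocorticoid from GR, read as fluorescence polarization. Tracer, receptor and 1:4-serially diluted compound were left together overnight at 4° C in the kit assay buffer.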

Row | Structure (SMILES) | IC50 ([1]; Homo sapiens) [nM] | IC50 [2] [nM] | IC50 [1] [nM]
1 | CC[C@]12CC[C@](O)(C(F)(F)F)C[C@H]1CC=Cc1cc3c(cnn3-c3ccc(F)cc3)cc12 [Example 93, (3R,4aR,12bS)-12b-Ethyl-9-(4-fluorophenyl)-3-(trifluoromethyl)-1,2,3,4,4a,5,9,12b-octahydrobenzo[6,7]cyclohepta[1,2-f]indazol-3-ol] | > 10000 | < 100 | –
2 | CC[C@@]12CC[C@](O)(C(F)(F)F)C[C@H]1CCCc1c2cc2cnn(-c3ccc(F)cc3)c2c1C [Example 103, (3R,4aR,12bR)-12b-Ethyl-9-(4-fluorophenyl)-8-methyl-3-(trifluoromethyl)-1,2,3,4,4a,5,6,7,9,12b-decahydrobenzo[6,7]cyclohepta[1,2-f]indazol-3-ol] | < 100 | < 100 | –
3 | CC[C@@]12CC[C@](O)(C(F)(F)F)C[C@H]1CCC(=O)c1cc3c(cnn3-c3ccc(F)cc3)cc12 [Example 105, (3R,4aR,12bR)-12b-Ethyl-9-(4-fluorophenyl)-3-hydroxy-3-(trifluoromethyl)-1,2,3,4,4a,5,6,12b-octahydrobenzo[6,7]cyclohepta[1,2-f]indazol-7(9H)-one] | < 100 | < 100 | –
4 | CC#C[C@]1(O)CC[C@]2(CC)c3cc4cnn(-c5ccc(F)cc5)c4cc3CCC[C@H]2C1 [Example 112] | – | 100 to 1000 | < 100
5 | CC[C@@]1(O)CC[C@@]2(CC)c3cc4cnn(-c5ccc(F)cc5)c4cc3CCC[C@@H]2C1 [Example 113, (3R,4aR,12bR)-3,12b-Diethyl-9-(4-fluorophenyl)-1,2,3,4,4a,5,6,7,9,12b-decahydrobenzo[6,7]cyclohepta[1,2-f]indazol-3-ol] | < 100 | < 100 | –
6 | CC[C@]1(O)CC[C@]2(CC)c3cc4cnn(-c5ccc(F)cc5)c4cc3CCC[C@H]2C1 [Example 114] | – | 100 to 1000 | 100 to 1000
7 | CC[C@@]12CC[C@@](O)(CN[C@H](C)c3ccccc3)C[C@H]1CCCc1cc3c(cnn3-c3ccc(F)cc3)cc12 [Example 126, (3S,4aR,12bR)-12b-ethyl-9-(4-fluorophenyl)-3-((((R)-1-phenylethyl)amino)methyl)-1,2,3,4,4a,5,6,7,9,12b-decahydrobenzo[6,7]cyclohepta[1,2-f]indazol-3-ol] | > 10000 | < 100 | –
8 | CC[C@@]12CC[C@](O)(COC)C[C@@H]1CCOc1cc3c(cnn3-c3ccc(F)cc3)cc12 [Example 131] | – | < 100 | < 100
9 | CC[C@]12CC[C@@](O)(COC)C[C@H]1CCOc1cc3c(cnn3-c3ccncc3)cc12 [Example 133] | > 10000 | 100 to 1000 | –
10 | CC[C@@]12CC[C@](O)(COC)C[C@@H]1CCOc1cc3c(cnn3-c3ccncc3)cc12 [Example 134] | < 100 | < 100 | –
11 | CC[C@@]12CC[C@](O)(COC)C[C@@H]1CCOc1cc3c(cnn3-c3ccnc(OC)c3)cc12 [Example 138] | – | < 100 | 1000 to 10000
12 | CC[C@@]12CC[C@@](C)(O)C[C@@H]1CCOc1cc3c(cnn3-c3ccnc(C)c3)cc12 [Example 143] | < 100 | < 100 | –
13 | CC[C@@]12CC[C@](O)(CC#N)C[C@@H]1CCOc1cc3c(cnn3-c3ccnc(C)c3)cc12 [Example 145] | < 100 | < 100 | –
14 | COC[C@@]1(O)CC[C@@]2(Cc3ncccn3)c3cc4cnn(-c5ccc(F)cc5)c4nc3CCC[C@H]2C1 [Example 158] | – | < 100 | < 100
15 | C[C@]1(O)CC[C@]2(Cc3ncccn3)c3cc4cnn(-c5ccc(F)cc5)c4nc3CCC[C@@H]2C1 [Example 162] | – | 100 to 1000 | 1000 to 10000
16 | N#CC[C@@]1(O)CC[C@@]2(Cc3ccccn3)c3cc4cnn(-c5ccc(F)cc5)c4nc3CCC[C@H]2C1 [Example 163] | – | < 100 | < 100
17 | N#CC[C@@]1(O)CC[C@@]2(Cc3ncccn3)c3cc4cnn(-c5ccc(F)cc5)c4nc3CCC[C@H]2C1 [Example 165] | – | < 100 | < 100
18 | CC[C@@]12CC[C@](O)(C(F)(F)F)C[C@H]1CCCc1cc3c(cnn3-c3ccc(S(C)(=O)=O)cc3)cc12 [Example 168, (3R,4aR,12bR)-12b-ethyl-9-(4-(methylsulfonyl)phenyl)-3-(trifluoromethyl)-1,2,3,4,4a,5,6,7,9,12b-decahydrobenzo[6,7]cyclohepta[1,2-f]indazol-3-ol] | < 100 | < 100 | –
19 | CC[C@]12CC[C@@](OCC(N)=O)(C(F)(F)F)C[C@@H]1CCCc1cc3c(cnn3-c3ccc(F)cc3)cc12 [Example 171, 2-(((3S,4aS,12bS)-12b-Ethyl-9-(4-fluorophenyl)-3-(trifluoromethyl)-1,2,3,4,4a,5,6,7,9,12b-decahydrobenzo[6,7]cyclohepta[1,2-f]indazol-3-yl)oxy)acetamide] | < 100 | < 100 | –
20 | CC[C@]12CC[C@@](OCC(=O)O)(C(F)(F)F)C[C@@H]1CCCc1cc3c(cnn3-c3ccc(F)cc3)cc12 [Example 172, 2-(((3S,4aS,12bS)-12b-ethyl-9-(4-fluorophenyl)-3-(trifluoromethyl)-1,2,3,4,4a,5,6,7,9,12b-decahydrobenzo[6,7]cyclohepta[1,2-f]indazol-3-yl)oxy)acetic acid] | > 10000 | < 100 | –

Further lines, results first:

Row | IC50 ([1]; Homo sapiens) [nM] | IC50 [2] [nM] | IC50 [1] [nM] | Structure (SMILES)
21 | > 10000 | 100 to 1000 | – | CC[C@]12CC[C@](O)(C(F)(F)F)C[C@H]1CCCc1c2cc2cnn(-c3ccc(F)cc3)c2c1Br [Example 92, (3R,4aR,12bS)-8-Bromo-12b-ethyl-9-(4-fluorophenyl)-3-(trifluoromethyl)-1,2,3,4,4a,5,6,7,9,12b-decahydrobenzo[6,7]cyclohepta[1,2-f]indazol-3-ol]
22 | < 100 | < 100 | – | CC[C@@]1(O)CC[C@@]2(Cc3ccccn3)c3cc4cnn(-c5ccc(F)cc5)c4cc3C(=O)CC[C@H]2C1 [Example 94, (3R,4aS,12bS)-3-Ethyl-9-(4-fluorophenyl)-3-hydroxy-12b-(pyridin-2-ylmethyl)-1,2,3,4,4a,5,6,12b-octahydrobenzo[6,7]cyclohepta[1,2-f]indazol-7(9H)-one]
23 | < 100 | < 100 | – | CC[C@@]12CC[C@](O)(C(F)(F)F)C[C@H]1CCCc1c2cc2cnn(-c3ccc(F)cc3)c2c1Br [Example 102, (3R,4aR,12bR)-8-Bromo-12b-ethyl-9-(4-fluorophenyl)-3-(trifluoromethyl)-1,2,3,4,4a,5,6,7,9,12b-decahydrobenzo[6,7]cyclohepta[1,2-f]indazol-3-ol]
24 | < 100 | < 100 | – | CC[C@@]12C[C@H](O)[C@@](O)(C(F)(F)F)C[C@H]1CCCc1cc3c(cnn3-c3ccc(F)cc3)cc12 [Example 108, (2S,3R,4aR,12bR)-12b-Ethyl-9-(4-fluorophenyl)-3-(trifluoromethyl)-1,2,3,4,4a,5,6,7,9,12b-decahydrobenzo[6,7]cyclohepta[1,2-f]indazole-2,3-diol]
25 | – | < 100 | < 100 | CC#C[C@@]1(O)CC[C@@]2(CC)c3cc4cnn(-c5ccc(F)cc5)c4cc3CCC[C@@H]2C1 [Example 111]
26 | > 10000 | 100 to 1000 | – | CC[C@]12CC[C@](O)(CN[C@H](C)c3ccccc3)C[C@@H]1CCCc1cc3c(cnn3-c3ccc(F)cc3)cc12 [Example 125, (3R,4aS,12bS)-12b-ethyl-9-(4-fluorophenyl)-3-((((R)-1-phenylethyl)amino)methyl)-1,2,3,4,4a,5,6,7,9,12b-decahydrobenzo[6,7]cyclohepta[1,2-f]indazol-3-ol]
27 | – | < 100 | > 10000 | CC[C@]12CC[C@@](O)(COC)C[C@H]1CCOc1cc3c(cnn3-c3ccc(F)cc3)cc12 [Example 130]
28 | – | < 100 | 1000 to 10000 | CC[C@@]12CC[C@](O)(COC)C[C@@H]1CCOc1cc3c(cnn3-c3ccnc(C(F)(F)F)c3)cc12 [Example 141]
29 | – | < 100 | < 100 | COC[C@@]1(O)CC[C@@]2(Cc3ccccn3)c3cc4cnn(-c5ccc(F)cc5)c4nc3CCC[C@@H]2C1 [Example 156]
30 | – | < 100 | < 100 | N#CC[C@]1(O)CC[C@]2(Cc3ncccn3)c3cc4cnn(-c5ccc(F)cc5)c4nc3CCC[C@@H]2C1 [Example 160]
31 | 1000 to 10000 | 100 to 1000 | – | CC[C@]12CC[C@@](O)(C(F)(F)F)C[C@@H]1CCCc1cc3c(cnn3-c3ccc(S(C)(=O)=O)cc3)cc12 [Example 169, (3S,4aS,12bS)-12b-ethyl-9-(4-(methylsulfonyl)phenyl)-3-(trifluoromethyl)-1,2,3,4,4a,5,6,7,9,12b-decahydrobenzo[6,7]cyclohepta[1,2-f]indazol-3-ol]
